Measurements from EP1598418A1, “STABILISED COMPOSITION FOR FLUORIMETRIC, COLORIMETRIC OR CHEMOLUMINESCENT ASSAYS, KITS CONTAINING SAME AND PRODUCTION METHOD THEREOF” (BIOTOOLS BIOTECHNOLOGICAL & MEDICAL LABORATORIES, S.A., priority 2003, dated 2004).

Key:
TaqMan probes = assay: Real-time amplification with desiccated, stabilised reaction mixture with TaqMan probes after storage (Example 2); format: biochemical, P. falciparum; conditions: vs fresh mixture
antidigoxygenin antibody = assay: Colorimetry assay of stabilised protein immobilised in ELISA microplates (Example 10.2); format: biochemical, HPV; conditions: vs fresh mixture
Experimental: To do so each dimple was incubated with 1µg of antidigoxygenin antibody (Roche).
The amplified product was incubated for 30 minutes in the dimples with the antibody immobilised. The amplified products immobilised in the plate by the union of the digoxygenin group of the amplicons and the immobilised anti-digoxygenin group were analysed by a colorimetric assay. […] The colorimetric reaction was finally analysed by measuring absorption at 415 nm.

[1] = tested on: reaction mixture with SYBR Green; assay: Real-time amplification with desiccated, stabilised reaction mixture with SYBR Green after storage (Example 5); format: biochemical, oncogenic papillomaviruses; conditions: conserved at T 25 °C, vs fresh mixture
Experimental: To test the efficiency of intercalated fluorophores such as SYBR Green included in desiccated and stabilised reaction mixtures, reaction mixtures were prepared for amplifying a 250 bp fragment corresponding to region E6-E7 of oncogenic papillomaviruses, using the same reagents as described in Example 1. In this case the unit "DNA Engine OPTICON™ 2 System" (MJ Research) was used. […] Also to each phial was added […] of SYBR Green 1 (Molecular probes).
Various tubes were prepared as described above, adding to each the suitable volume of each stabilising mixture shown in Table 1.
In parallel, in order to check the evolution of the activity of the desiccated tubes, DNA samples were amplified using a fresh mixture in the same amplification conditions.
The result of the amplification reaction was analysed in every case by inspecting the fluorescence curve and determining the crossing point, following the instructions of the equipment software, for each reaction tube both fresh and desiccated and stabilised. […] The samples of patients infected with oncogenic HPV gave positive results in every case, while patients infected with non-oncogenic HPV, or not infected with HPV, gave negative results in every case.

FRET probes = assay: Real-time amplification with desiccated, stabilised reaction mixture with FRET probes after storage (Example 1); format: biochemical, P. falciparum; conditions: vs fresh mixture
[2] = tested on: probes marked with biotin or digoxygenin groups; assay: Synthesis of digoxygenin-marked probes with desiccated mixtures and molecular hybridisation test (Example 9); conditions: vs fresh mixture
[3] = tested on: nucleic acids immobilised in ELISA microplates; assay: Amplification and colorimetric detection with stabilised nucleic acids immobilised in ELISA microplates (Example 10.1); conditions: vs fresh mixture
[4] = tested on: Anti-digoxygenin antibodies; assay: Colorimetric assay of stabilised proteins immobilised in modified glasses (Example 10.4); format: biochemical, P. falciparum; conditions: vs fresh mixture
Experimental: To test the possibility of stabilising proteins that have been previously immobilised in pre-treated glass supports, the usual format of microarray systems, two different alternatives were tested as in the previous experiment.
Approach 1. Stabilisation of supports with previously fixed protein. Anti-digoxygenin antibodies were fixed to glass supports pre-treated with aldehyde. To do so, in each support slide 1 microlitre spots were applied of the solution of each protein at a concentration of 30 ng/µl. The slides with the immobilised protein were then coated with a thin layer of each of the stabilising mixtures and then desiccated in a vacuum oven at 25°C and 50 mbar pressure.
Approach 2. Fixation to the slides of the protein pre-mixed with the stabilising mixtures. A mixture was prepared of each of the probes with the suitable volumes of the stabilising mixtures described in Table 1. Then the mixtures of protein were applied to the various slides with the fixing conditions indicated for each glass format.
To test the viability of each slide prepared, a colorimetric assay was performed with formation of precipitate products. To do so, the slides were washed for 5 minutes in PBS 1X at room temperature to eliminate the protective layer.

[5] = tested on: oligonucleotides chemically modified by including biotin and/or digoxygenin groups; assay: Amplification with desiccated biotin/digoxygenin oligonucleotides and colorimetric ELISA plate assay (Example 7); format: biochemical, oncogenic HPV; conditions: vs fresh mixture
Experimental: To do so, 4 oligonucleotides were designed that hybridised with the genome of region E6-E7 of oncogenic HPV species.
To do so, an ELISA microplate with a high-binding capacity to streptoavidin (Biospa) was activated following a standard fixing protocol. Then, after blocking the plate by incubation with gelatine, the amplified products of the stabilising mixtures 1, 2 and 3 described in Example 7.A were analysed by a colorimetry assay according to the following experimental process: • A.- Amplification products using an onligonucleotide marked with digoxygenin (mixture 1 in Example 7.A). The biotinated probe A11 was fixed to the plate and the amplified product was hybridised. […] The amplification product was fixed to the plate with the first biotinilate and then hybridised with the first A12 marked with digoxygenin.

[6] = tested on: Molecular Beacon (MB) probe; assay: Real-time amplification with desiccated, stabilised reaction mixture with Molecular Beacon probe after storage (Example 3); format: biochemical, P. falciparum; conditions: vs fresh mixture
[7] = tested on: nucleic acids immobilised in modified glasses; assay: Colorimetric assay of stabilised nucleic acids immobilised in modified glasses (Example 10.3); format: biochemical, HPV 16; conditions: vs fresh mixture
Experimental: Approach 1. Stabilisation of supports with previously fixed nucleic acids. HPV specific probes were fixed to glass supports pre-treated with polylysiun, aldehyde, epoxy, superepoxy and silane. To do so, in each support slide 1 microlitre spots were applied of the solution of each oligonucleotide at a concentration of 20 µM in the conditions indicated for each glass format. The slides with the immobilised oligonucleotides were then coated with a thin layer of each of the stabilising mixtures and then desiccated in a vacuum oven at 25°C and 50 mbar pressure.
Approach 2. Fixation to the slides of the nucleic acids pre-mixed with the stabilising mixtures. A mixture was prepared of each of the probes with the suitable volumes of the stabilising mixtures described in Table 1. Then the mixtures of oligonucleotides were applied to the various slides with the fixing conditions indicated for each glass format.
To test the viability of each slide prepared, a colorimetric assay was performed with formation of precipitate products. To do so, the slides were washed for 5 minutes in PBS 1X at room temperature to eliminate the protective layer. Then the slides were incubated in the presence of an amplified and previously denatured HPV 16 product using the probes A11 and A12.

[8] = tested on: streptoavidin conjugated with HRP (Str-HRP) and anti-digoxygenin conjugated with alkaline phospatase (anti-DIG-AP); assay: Colorimetric ELISA plate activity test of desiccated, stabilised conjugates (Example 8); format: biochemical, HPV 16; conditions: vs fresh mixture
Experimental: In 0.2 ml amplification tubes were added 100 microlitres of a 1/250 dilution in a blocking solution of the conjugate Str-HRP (Biospa). In parallel, 0.2 ml phials were prepared in which 100 microlitres were added of a 1/250 dilution in a blocking solution of anti-DIG-AP (Sigma).
For the activity assay of the conjugate anti-DIG-AP an ELISA plate was used in which the dimples had been previously coated with streptoavidin. For the activity assay of conjugate Str-HRP a plate was used instead with dimples previously coated with anti-DIG antibodies. The amplified products were incubated in each plate to allow the immobilisation of the amplicons in the plate.

Scorpion probes = assay: Real-time amplification with desiccated, stabilised reaction mixture with Scorpion probes after storage (Example 4); format: biochemical, M. tuberculosis; conditions: conserved at T 25 °C, vs fresh mixture
[9] = tested on: DTCS Quick Start Master Mix; assay: Sequencing reaction with desiccated, stabilised mixture with fluorescent terminators after storage (Example 6); format: biochemical, human papillomavirus; conditions: vs fresh mixture
Experimental: To test the possibility of gelling reaction mixtures for sequencing nucleic acids the CEQ 200 Dye Terminator Cycle Sequencing (DTCS) Quick Start Kit (Beckman Coulter) was employed, which uses a PCR sequencing system in a single tube by incorporating four different fluorescent terminators. The sequencing reactions were later analysed in a CEQ 2000 XL DNA Analysis System (Beckman Coulter) capillary electrophoresis automatic sequencing system.
Reaction mixtures were prepared containing 4 microlitres of DTCS Quick Start Master Mix, 1 microlitre of universal primer M13-17 and the suitable volume of each stabilising mixture shown in Table 1.
In parallel, in order to check the evolution of the activity of the desiccated and stabilised tubes, the same plasmid was sequenced using a fresh sequencing mixture in standard conditions. Finally, the sequencing reactions were analysed in the CEQ 200XL system following the supplier's instructions.

| Structure (SMILES) | activity of stabilising mixtures (TaqMan probes; conserved at T 4 °C) | activity of stabilising mixtures (antidigoxygenin antibody; conserved at T 4 °C) | activity of stabilising mixtures (FRET probes; conserved at T 4 °C) | activity of stabilising mixtures ([2]; conserved at T 4 °C) | activity of stabilising mixtures ([3]; conserved at T 4 °C) | activity of stabilising mixtures ([4]; conserved at T 4 °C) | activity of stabilising mixtures ([5]; conserved at T 4 °C) | activity of stabilising mixtures ([6]; conserved at T 4 °C) | activity of stabilising mixtures ([7]; conserved at T 4 °C) | activity of stabilising mixtures ([9]; conserved at T 4 °C) | activity of stabilising mixtures ([8]; conserved at T 4 °C) | other results |
| --- | --- | --- | --- | --- | --- | --- | --- | --- | --- | --- | --- | --- |
| OC[C@H]1O[C@H](O[C@H]2O[C@H](CO)[C@@H](O)[C@H](O)[C@H]2O)[C@H](O)[C@@H](O)[C@@H]1O [Trehalose] | ++ (++, positive with 50-90% of the activity of the fresh mixture) | ++ (++, positive with 50-90% of the activity of the fresh mixture) | ++ (++, positive with 50-90% of the activity of the fresh mixture) | ++ (++, positive with 50-90% of the activity of the fresh mixture) | ++ (++, positive with 50-90% of the activity of the fresh mixture) | ++ (++, positive with 50-90% of the activity of the fresh mixture) | ++ (++, positive with 50-90% of the activity of the fresh mixture) | ++ (++, positive with 50-90% of the activity of the fresh mixture) | ++ (++, positive with 50-90% of the activity of the fresh mixture) | ++ (++, positive with 50-90% of the activity of the fresh mixture) | – | activity of stabilising mixtures (TaqMan probes; conserved at T 25 °C): + (+, weak positive, under 50% of the activity of the fresh mixture); activity of stabilising mixtures (antidigoxygenin antibody; conserved at T 25 °C): + (+, weak positive, under 50% of the activity of the fresh mixture); activity of stabilising mixtures [1]: + (+, weak positive, under 50% of the activity of the fresh mixture); activity of stabilising mixtures (FRET probes; conserved at T 25 °C): + (+, weak positive, under 50% of the activity of the fresh mixture); activity of stabilising mixtures ([2]; conserved at T 25 °C): + (+, weak positive, under 50% of the activity of the fresh mixture); activity of stabilising mixtures ([3]; conserved at T 25 °C): + (+, weak positive, under 50% of the activity of the fresh mixture); activity of stabilising mixtures ([4]; conserved at T 25 °C): + (+, weak positive, under 50% of the activity of the fresh mixture); activity of stabilising mixtures ([5]; conserved at T 25 °C): + (+, weak positive, under 50% of the activity of the fresh mixture); activity of stabilising mixtures ([6]; conserved at T 25 °C): + (+, weak positive, under 50% of the activity of the fresh mixture); activity of stabilising mixtures ([7]; conserved at T 25 °C): + (+, weak positive, under 50% of the activity of the fresh mixture); activity of stabilising mixtures ([8]; conserved at T 25 °C): + (+, weak positive, under 50% of the activity of the fresh mixture); activity of stabilising mixtures (Scorpion probes): + (+, weak positive, under 50% of the activity of the fresh mixture); activity of stabilising mixtures ([9]; conserved at T 25 °C): + (+, weak positive, under 50% of the activity of the fresh mixture) |
| OC[C@@H](O)[C@@H](O)[C@H](O)[C@@H](O)CO [Sorbitol] | ++ (++, positive with 50-90% of the activity of the fresh mixture) | ++ (++, positive with 50-90% of the activity of the fresh mixture) | ++ (++, positive with 50-90% of the activity of the fresh mixture) | ++ (++, positive with 50-90% of the activity of the fresh mixture) | ++ (++, positive with 50-90% of the activity of the fresh mixture) | ++ (++, positive with 50-90% of the activity of the fresh mixture) | ++ (++, positive with 50-90% of the activity of the fresh mixture) | ++ (++, positive with 50-90% of the activity of the fresh mixture) | ++ (++, positive with 50-90% of the activity of the fresh mixture) | ++ (++, positive with 50-90% of the activity of the fresh mixture) | ++ (++, positive with 50-90% of the activity of the fresh mixture) | – |
| OCC(O)CO [Glycerol] | ++ (++, positive with 50-90% of the activity of the fresh mixture) | ++ (++, positive with 50-90% of the activity of the fresh mixture) | ++ (++, positive with 50-90% of the activity of the fresh mixture) | ++ (++, positive with 50-90% of the activity of the fresh mixture) | ++ (++, positive with 50-90% of the activity of the fresh mixture) | ++ (++, positive with 50-90% of the activity of the fresh mixture) | ++ (++, positive with 50-90% of the activity of the fresh mixture) | ++ (++, positive with 50-90% of the activity of the fresh mixture) | ++ (++, positive with 50-90% of the activity of the fresh mixture) | ++ (++, positive with 50-90% of the activity of the fresh mixture) | ++ (++, positive with 50-90% of the activity of the fresh mixture) | – |
